Source: paper PMC6327987, “Synthesis and biological evaluation of novel N^9-heterobivalent β-carbolines as angiogenesis inhibitors” (Journal of Enzyme Inhibition and Medicinal Chemistry, 2019)
Where two headings read alike, the source gives them in different places.

Assays:
HT-29 = test: MTT cytotoxicity, colon carcinoma cells; type: cell-based; settings: MTT assay, colon carcinoma HT-29, mean ± SD of at least three determinations
Description: (§1) Target compounds were assayed by the MTT method for cytotoxic activity, as described previously. The panel of cell lines included gastric carcinoma (BGC-823), liver carcinoma (HepG2), breast carcinoma (MCF-7), colon carcinoma (HT-29), esophageal carcinoma (Eca-109), and Lewis lung carcinoma (LLC). Growth inhibition rates were calculated with the following equitation: Inhibition ratio (%)= ODcompd−ODblank/ODDMSO−ODblank×100% . Half maximal inhibitory concentration (IC50) of each compound was calculated using software Graph-Pad Prism (version 6.0).
(§2) All the 24 novel synthesized N^9-heterobivalent β-carbolines (5a-x) were screened for their in vitro cytotoxic activities against six different cancer cell lines, namely BGC-823 (gastric carcinoma), HepG2 (liver carcinoma), MCF-7 (breast carcinoma), HT-29 (colon carcinoma), Eca-109 (esophageal carcinoma) and LLC (Lewis lung carcinoma). The IC50 values were the average of at least three independent experiments.

LLC = test: MTT cytotoxicity, Lewis lung carcinoma cells; type: cell-based; settings: MTT assay, mean ± SD of at least three determinations
Description: as §1, §2

Eca-109 = test: MTT cytotoxicity, esophageal carcinoma cells; type: cell-based; settings: esophageal carcinoma Eca-109, mean ± SD of at least three determinations
Description: as §1, §2

HepG2 = test: MTT cytotoxicity, liver carcinoma cells; type: cell-based; settings: MTT assay, liver carcinoma HepG2, mean ± SD of at least three determinations
Description: as §1, §2

MCF-7 = test: MTT cytotoxicity, breast carcinoma cells; type: cell-based; settings: MTT assay, breast carcinoma MCF-7, mean ± SD of at least three determinations
Description: as §1, §2

BGC-823 = test: MTT cytotoxicity, gastric carcinoma cells; type: cell-based; settings: MTT assay, gastric carcinoma BGC-823, mean ± SD of at least three determinations
Description: as §1, §2

[1] = system: six tumor cell lines (BGC-823, HepG2, MCF-7, HT-29, Eca-109, LLC); test: MTT cytotoxicity, panel of six tumour cell lines (summary statements); type: cell-based; settings: MTT assay, statement over all cell lines tested; read-out: IC50 against the tested six tumor cell lines
Description: as §1, §2

[2] = Homo sapiens, ECa-109, MTT assay

Row | melting point | SMILES | IC50 (HT-29; Homo sapiens) | IC50 (LLC; Lewis lung carcinoma) | IC50 (Eca-109; [2]) | IC50 (HepG2; Homo sapiens) | IC50 (MCF-7; Homo sapiens, MCF7) | IC50 (BGC-823; Homo sapiens) | IC50 (LLC) | IC50 (Eca-109; MTT assay) | IC50 [1] | IC50 (HT-29) | IC50 (HepG2) | IC50 (MCF-7; read-out: IC50 (μM) ±SD MCF7) | IC50 (BGC-823)
1 | 231 to 232.3 °C | COc1cc(-c2nccc3c4ccccc4n(CCCCn4c5ccccc5c5ccnc(-c6cccnc6)c54)c23)cc(OC)c1OC [Compound 5m, 1–(3,4,5-trimethoxyphenyl)-9–(4-(1–(3-pyridyl)-β-carboline-9-yl)butyl)-β-carboline] | > 100 µM | > 100 µM | 70.9 ± 8.4 µM | 85.1 ± 11.6 µM | > 100 µM | > 100 µM |  |  |  |  |  |  | 
2 | 188.7 to 189.4 °C | COc1ccc2c3ccnc(C)c3n(CCCCn3c4ccccc4c4ccnc(C)c43)c2c1 [Compound 5s, 7-methoxy-1-methyl-9–(4-(1-methyl-β-carboline-9-yl)butyl)-β-carboline] | 11.1 ± 0.8 µM | 6.2 ± 0.6 µM | 11.3 ± 2.7 µM | 37.6 ± 5.8 µM | 36.4 ± 2.1 µM | 17.9 ± 1.1 µM |  |  |  |  |  |  | 
3 | 163.8 to 164.5 °C | COc1ccc2c3ccnc(C)c3n(CCCCn3c4ccccc4c4ccnc(-c5cccnc5)c43)c2c1 [Compound 5u, 7-methoxy-1-methyl-9–(4-(1–(3-pyridyl)-β-carboline-9-yl)butyl)-β-carboline] | 15.1 ± 3.1 µM | 12.2 ± 2.3 µM | 25.2 ± 5.5 µM | 26.8 ± 2.8 µM | 23.9 ± 0.7 µM | 39.1 ± 2.4 µM |  |  |  |  |  |  | 
4 | 196.1 to 197.4 °C | COc1ccc2c3ccnc(C)c3n(CCCCCn3c4ccccc4c4ccnc(-c5cccs5)c43)c2c1 [Compound 5x, 7-methoxy-1-methyl-9–(5-(1–(2-thienyl)-β-carboline-9-yl)pentyl)-β-carboline] | > 100 µM | 12.2 ± 3.7 µM | 46.7 ± 6.9 µM | > 100 µM | 41.6 ± 5.3 µM | > 100 µM |  |  |  |  |  |  | 
5 | 141.6 to 143.1 °C | c1csc(-c2nccc3c4ccccc4n(CCCCn4c5ccccc5c5ccncc54)c23)c1 [Compound 5e, 1–(2-thienyl)-9–(4-(β-carboline-9-yl)butyl)-β-carboline] | 18.1 ± 3.6 µM | 32.3 ± 4.5 µM | > 100 µM | > 100 µM | > 100 µM | > 100 µM |  |  |  |  |  |  | 
6 | 169.1 to 171.2 °C | Cc1nccc2c3ccccc3n(CCCCCn3c4ccccc4c4ccnc(-c5ccccc5Cl)c43)c12 [Compound 5j, 1–(2-chlorophenyl)-9–(5-(1-methyl-β-carboline-9-yl)pentyl)-β-carboline] | 24.1 ± 2.2 µM | < 20 µM | < 20 µM | > 100 µM | 46.8 ± 3.7 µM | > 100 µM | 16.6 ± 3.1 µM | 18.6 ± 2.1 µM |  |  |  |  | 
7 | 158.4 to 159.2 °C | Cc1nccc2c3ccccc3n(CCCCCn3c4ccccc4c4ccnc(-c5cccs5)c43)c12 [Compound 5g, 1–(2-thienyl)-9–(5-(1-methyl-β-carboline-9-yl)pentyl)-β-carboline] | 32.3 ± 5.3 µM | 22.7 ± 1.4 µM | 30.8 ± 3.2 µM | 18.8 ± 2.3 µM | 75.5 ± 10.7 µM | 97.6 ± 12.4 µM |  |  | 18.8 to 97.6 µM |  |  |  | 
8 | 241.2 to 242.4 °C | COc1ccc(-c2nccc3c4ccccc4n(CCCCn4c5ccccc5c5ccnc(-c6cccnc6)c54)c23)cc1 [Compound 5k, 1–(4-methoxyphenyl)-9–(4-(1–(3-pyridyl)-β-carboline-9-yl)butyl)-β-carboline] | > 100 µM | > 100 µM | > 100 µM | > 100 µM | > 100 µM | > 100 µM |  |  |  |  |  |  | 
9 | 177.6 to 178.9 °C | Clc1ccccc1-c1nccc2c3ccccc3n(CCCCn3c4ccccc4c4ccnc(-c5cccnc5)c43)c12 [Compound 5n, 1–(2-chlorophenyl)-9–(4-(1–(3-pyridyl)-β-carboline-9-yl)butyl)-β-carboline] | 72.2 ± 5.2 µM | > 100 µM | > 100 µM | > 100 µM | 86.9 ± 15.3 µM | > 100 µM |  |  |  |  |  |  | 
10 | 238.5 to 239.6 °C | Cc1nccc2c3ccccc3n(CCCCCCn3c4ccccc4c4ccnc(-c5cccs5)c43)c12 [Compound 5h, 1–(2-thienyl)-9–(6-(1-methyl-β-carboline-9-yl)hexyl)-β-carboline] | 47.8 ± 6.5 µM | 30.2 ± 1.5 µM | 30.2 ± 3.4 µM | > 100 µM | 75.9 ± 9.4 µM | > 100 µM |  |  |  |  |  |  | 
11 | 225.4 to 227.2 °C | Clc1ccccc1-c1nccc2c3ccccc3n(CCCCn3c4ccccc4c4ccnc(-c5cccs5)c43)c12 [Compound 5r, 1–(2-chlorophenyl)-9–(4-(1–(2-thienyl)-β-carboline-9-yl)butyl)-β-carboline] | 96.2 ± 5.1 µM | > 100 µM | 96.7 ± 11.9 µM | > 100 µM | 60.7 ± 4.8 µM | > 100 µM |  |  |  |  |  |  | 
12 | 226.5 to 227.8 °C | COc1cc(-c2nccc3c4ccccc4n(CCCCn4c5ccccc5c5ccnc(-c6cccs6)c54)c23)cc(OC)c1OC [Compound 5q, 1–(3,4,5-trimethoxyphenyl)-9–(4-(1–(2-thienyl)-β-carboline-9-yl)butyl)-β-carboline] | > 100 µM | > 100 µM | > 100 µM | > 100 µM | > 100 µM | > 100 µM |  |  |  |  |  |  | 
13 | 141.3 to 142.9 °C | Cc1nccc2c3ccccc3n(CCCCCCn3c4ccccc4c4ccnc(-c5cccnc5)c43)c12 [Compound 5d, 1–(3-pyridyl)-9–(6-(1-methyl-β-carboline-9-yl)hexyl)-β-carboline] | > 100 µM | < 20 µM | < 20 µM | > 100 µM | > 100 µM | > 100 µM | 14.5 ± 0.9 µM | 18.9 ± 3.1 µM |  |  |  |  | 
14 | 214.8 to 216 °C | Cc1nccc2c3ccccc3n(CCCCn3c4ccccc4c4ccnc(-c5cccs5)c43)c12 [Compound 5f, 1–(2-thienyl)-9–(4-(1-methyl-β-carboline-9-yl)butyl)-β-carboline] | 56.1 ± 4.2 µM |  | 64.1 ± 7.6 µM | > 100 µM | 46.6 ± 4.8 µM | 38.8 ± 2.9 µM |  |  |  |  |  |  | 
15 | 239.8 to 240.5 °C | COc1ccc(-c2nccc3c4ccccc4n(CCCCn4c5ccccc5c5ccnc(-c6cccnc6)c54)c23)cc1OC [Compound 5l, 1–(3,4-dimethoxyphenyl)-9–(4-(1–(3-pyridyl)-β-carboline-9-yl)butyl)-β-carboline] | 91.1 ± 10.6 µM | 46.8 ± 6.4 µM | 93.2 ± 7.1 µM | 79.5 ± 12.3 µM | > 100 µM | > 100 µM |  |  |  |  |  |  | 
16 | 183.6 to 184.9 °C | COc1ccc2c3ccnc(C)c3n(CCCCCn3c4ccccc4c4ccnc(-c5cccnc5)c43)c2c1 [Compound 5v, 7-methoxy-1-methyl-9–(5-(1–(3-pyridyl)-β-carboline-9-yl)pentyl)-β-carboline] | 13.5 ± 2.2 µM | 11.8 ± 1.8 µM | 13.2 ± 3.6 µM | 31.1 ± 3.4 µM | 18.7 ± 0.5 µM | 23.2 ± 1.5 µM |  |  |  |  |  |  | 
17 | 173.3 to 175.1 °C | c1cncc(-c2nccc3c4ccccc4n(CCCCn4c5ccccc5c5ccncc54)c23)c1 [Compound 5a, 1–(3-pyridyl)-9–(4-(β-carboline-9-yl)butyl)-β-carboline] | > 100 µM | > 100 µM | > 100 µM | 39.1 ± 5.4 µM | > 100 µM | > 100 µM |  |  |  |  |  |  | 
18 | 232.5 to 233.3 °C | COc1ccc(-c2nccc3c4ccccc4n(CCCCn4c5ccccc5c5ccnc(-c6cccs6)c54)c23)cc1 [Compound 5o, 1–(4-methoxyphenyl)-9–(4-(1–(2-thienyl)-β-carboline-9-yl)butyl)-β-carboline] | > 100 µM | 96.8 ± 9.8 µM | > 100 µM | > 100 µM | > 100 µM | > 100 µM |  |  |  |  |  |  | 
19 | 217.2 to 218.4 °C | COc1ccc(-c2nccc3c4ccccc4n(CCCCn4c5ccccc5c5ccnc(-c6cccs6)c54)c23)cc1OC [Compound 5p, 1–(3,4-dimethoxyphenyl)-9–(4-(1–(2-thienyl)-β-carboline-9-yl)butyl)-β-carboline] | > 100 µM | > 100 µM | > 100 µM | > 100 µM | > 100 µM | > 100 µM |  |  |  |  |  |  | 
20 |  | N.N.[Cl][Pt][Cl] [Cisplatin, reference compound] |  |  |  |  |  |  | 7.6 ± 0.4 µM | 8.9 ± 0.6 µM |  | 26.8 ± 1.4 µM | 14.8 ± 0.4 µM | 12.4 ± 0.7 µM | 11.6 ± 0.7 µM
